Several values for one entry are separate records, joined by “and”; a condition that tells them apart may be missing. Equal values may be shown once.

For assay [1], the target named is T1, PSMA protein isolated from prostate cancer cell LNCaP (Homo sapiens, UniProt Q04609).
T1 construct: membrane portion of PSMA enzyme was extracted from PSMA+ LNCaP cell line; endogenous in cells; host or cells: LNCaP (membrane pellet after 100,000 x g ultracentrifugation)
Put plainly: PSMA or GCPII enzyme inhibition (NAALADase) assay, Amplex Glutamate kit. The format is biochemical. The following applies: NAAG 30 nM substrate, 60 min, fluorescence.
Description: Briefly, PSMA enzyme was extracted from membrane lysates of LNCaP cell lines after separating the soluble cytosolic PSM′ portion by ultracentrifugation at 100,000×g. The PSMA enzyme (8.3027 ng, 100 μL) free from cytosolic portion was incubated with various concentrations of the AAPT inhibitor (0.1 nM to 1000 nM, 100 μL) in the presence of NAAG (30 nM, 50 μL) for 60 min in a 24-well plate. The amount of glutamic acid released by the hydrolysis of NAAG during competitive inhibition by AAPT inhibitor was measured by incubating each well with a working solution of Amplex Red reagent (100 uM, 50 μL) for 30 min at 37° C. The fluorescence emission from each well, proportional to the amount of released glutamic acid, was measured using Synergy H1 multimode plate reader (BioTek Instruments, Inc., Winooski, VT, USA) at an excitation and emission wavelength of 530 nm and 590 nm respectively.
In the first trial, the enzyme inhibition analysis was performed by incubating PSMA enzyme with increasing concentrations of inhibitor, AAPT.
Fluorescent-based enzyme inhibition assay was performed to determine the IC50 value of the newly synthesized GCPII inhibitors 1-3 (AAPT ligands). Amplex Glutamate kit was purchased from Invitrogen, and a working solution of Amplex Red reagent (5 mL, 100 μM) was prepared. Meanwhile, membrane portion of PSMA enzyme was extracted from PSMA+ LNCaP cell line by following a reported protocol. Briefly LNCaP cells (1 million) were harvested in HEPES buffer (1 mL) and lyzed twice using probe sonicator for 30 s. […] The amount of glutamic acid released by the hydrolysis of NAAG was measured by incubating a working solution of Amplex Red reagent (50 μL, 100 μM) for 30 min at 37° C. The fluorescence emission after the oxidation of Amplex Red reagent was measured by using Synergy H1 multimode plate reader (BioTek Instruments, Inc., Winooski, VT, USA). The excitation wavelength was fixed at 530 nm, and the fluorescence emission is measured at 590 nm. […]

In assay [2] the target is T2, PSMA protein (Homo sapiens, UniProt Q04609).
T2 construct: endogenous in cells; host or cells: LNCaP
Description: Binding affinity of 99mTc AAPT-PCa bioconjugates in PSMA+ LNCaP cells, gamma counter. The following applies: 99mTc bioconjugate, counts per minute, 1 h incubation, read-out: dissociation constant (KD), binding affinity. The procedure: In an embodiment, FIG. 24, evaluation of binding affinity of AAPT-PCa Bioconjugate 8a in PSMA+ LNCaP cells was done, using gamma scintillation counter. The binding affinity constant of PSMA targeted conjugate, 8a, to target PSMA was determined in vitro in LNCaP cells by measuring the counts per minute for different concentrations of the ^99mTc bioconjugate 8a in triplicate.
A solution of stannous chloride dihydrate (0.80 mg, 0.003 mmol) in 0.2 M hydrochloric acid (0.8 mL) was added to a solution of sodium-α-D-glucoheptonate dihydrate (800 mg, 2.815 mmol) in nitrogen-purged water. Chelating bioconjugate 8a-g (0.001 mmol) was added to the reaction mixture while continuous nitrogen purging. The pH of the solution was adjusted to 6.8 using 0.1 N sodium hydroxide solution. After the pH adjustment nitrogen-purged water was added to achieve a total volume of 10 mL. The solution was then dispensed in 5 mL vials (1 mL/vial) under nitrogen atmosphere and lyophilized for 48 h. […]
The cells were then gently dissociated with trypsin and centrifuge to obtain a pellet. […] The cell pellet free of unbound bioconjugate was resuspended in the ice-cold FACS buffer to evaluate cell-bound radioactivity using a gamma counter. The dissociation constant Kd was calculated using graph pad prism 7.04.

For assay [3], the target named is T2, PSMA protein. Description: Binding affinity of fluorescent conjugates in LNCaP cells by flow cytometry (FACS). Particulars: mean fluorescence intensity, triplicate, read-out: dissociation constant (KD). The method, then: In an embodiment in FIG. 15, Evaluation of binding affinity of PSMA targeted fluorescent conjugate 22, AAPT-C17201, using flow cytometry analysis. The binding affinity constant of PSMA targeted fluorescent conjugate, AAPT-C17201, to target PSMA was determined in vitro in LNCaP cells by measuring the mean fluorescence intensity per cell for different concentrations of the fluorescent conjugate in triplicate using Fluorescence Activated Cell Sorting (FACS) study.

T1 sequence (Q04609 whole entry): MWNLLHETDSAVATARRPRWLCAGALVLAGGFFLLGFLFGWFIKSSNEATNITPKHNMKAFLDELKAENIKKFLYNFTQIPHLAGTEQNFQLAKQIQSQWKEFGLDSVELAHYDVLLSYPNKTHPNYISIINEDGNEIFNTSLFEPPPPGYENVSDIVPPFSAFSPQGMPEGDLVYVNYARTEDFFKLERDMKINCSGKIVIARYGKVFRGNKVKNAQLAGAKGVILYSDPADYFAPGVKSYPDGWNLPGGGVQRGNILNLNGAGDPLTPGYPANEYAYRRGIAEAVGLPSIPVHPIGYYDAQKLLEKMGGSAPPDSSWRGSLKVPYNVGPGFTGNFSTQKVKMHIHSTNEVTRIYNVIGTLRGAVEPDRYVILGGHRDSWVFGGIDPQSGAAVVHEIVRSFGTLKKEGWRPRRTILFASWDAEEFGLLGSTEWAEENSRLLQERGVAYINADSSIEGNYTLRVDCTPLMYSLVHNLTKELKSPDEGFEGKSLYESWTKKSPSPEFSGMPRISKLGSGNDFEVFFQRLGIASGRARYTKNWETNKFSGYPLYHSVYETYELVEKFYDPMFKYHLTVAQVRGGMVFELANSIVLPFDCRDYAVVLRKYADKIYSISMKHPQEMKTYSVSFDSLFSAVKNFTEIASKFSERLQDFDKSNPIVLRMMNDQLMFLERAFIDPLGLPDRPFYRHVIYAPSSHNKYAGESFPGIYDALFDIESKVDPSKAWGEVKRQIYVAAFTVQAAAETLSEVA
T2 sequence (Q04609 whole entry): as above

Turning to `O=C(O)CC[C@H](NCC(=O)N[C@@H](CCC(=O)O)C(=O)O)C(=O)O` [Ligand 1], the IC50 in assay [1] was 38.5 nM and 95 nM and 78 nM.

As for `NC(CNC(=O)[C@H](Cc1cccc2ccccc12)NC(=O)[C@H](Cc1cccc2ccccc12)NC(=O)CCCCCCCNC(=O)CCC(NC(=O)CNC(CCC(=O)O)C(=O)O)C(=O)O)C(=O)N[C@@H](CC(=O)O)C(=O)N[C@@H](CS)C(=O)O` (stereo partly shown) [Ligand 8g], the Kd at PSMA protein [2] was 42 nM.

Turning to `CCN(CC)c1ccc2c(-c3ccccc3C(=O)NCCCC[C@H](NC(=O)CCCCCCCNC(=O)[C@H](Cc3ccccc3)NC(=O)[C@H](Cc3ccccc3)NC(=O)CCCCCCCNC(=O)CC[C@H](NC(=O)CN[C@@H](CCC(=O)O)C(=O)O)C(=O)O)C(=O)N[C@@H](CC(=O)O)C(=O)NCCN)c3ccc(=[N+](CC)CC)cc-3oc2c1` [Ligand 22], on PSMA protein [3], the Kd is 85 nM.

As to `CCN(CC)c1ccc2c(-c3ccccc3C(=O)NCCCC[C@H](NC(=O)CCCCCCCNC(=O)c3ccc(CNC(=O)[C@H](Cc4ccccc4)NC(=O)[C@H](Cc4ccccc4)NC(=O)CCCCCCCNC(=O)CC[C@H](NC(=O)CN[C@@H](CCC(=O)O)C(=O)O)C(=O)O)cc3)C(=O)N[C@@H](CC(=O)O)C(=O)NCCN)c3ccc(=[N+](CC)CC)cc-3oc2c1` [Ligand 25], the Kd at PSMA protein [3] amounted to 130 nM.

For the origin of these results see patent US20250090698A1, “SMALL MOLECULE INHIBITORS FOR EARLY DIAGNOSIS OF PROSTATE SPECIFIC MEMBRANE ANTIGEN CANCERS AND NEURODEGENERATIVE DISEASES” (INDIAN INSTITUTE OF TECHNOLOGY INDORE, priority 2018, published 2025).
